Assay results reported in US11198713B2, “Agents modulating beta-catenin functions and methods thereof” (FOG PHARMACEUTICALS, INC., priority 2017, dated 2021).

Biological target: T1, full-length beta-catenin (Axin site) (Homo sapiens, UniProt P35222)
T1 construct: 15 nM full-length beta-catenin, 20 nM FITC labeled peptide in buffer
T1 sequence (P35222 1-781): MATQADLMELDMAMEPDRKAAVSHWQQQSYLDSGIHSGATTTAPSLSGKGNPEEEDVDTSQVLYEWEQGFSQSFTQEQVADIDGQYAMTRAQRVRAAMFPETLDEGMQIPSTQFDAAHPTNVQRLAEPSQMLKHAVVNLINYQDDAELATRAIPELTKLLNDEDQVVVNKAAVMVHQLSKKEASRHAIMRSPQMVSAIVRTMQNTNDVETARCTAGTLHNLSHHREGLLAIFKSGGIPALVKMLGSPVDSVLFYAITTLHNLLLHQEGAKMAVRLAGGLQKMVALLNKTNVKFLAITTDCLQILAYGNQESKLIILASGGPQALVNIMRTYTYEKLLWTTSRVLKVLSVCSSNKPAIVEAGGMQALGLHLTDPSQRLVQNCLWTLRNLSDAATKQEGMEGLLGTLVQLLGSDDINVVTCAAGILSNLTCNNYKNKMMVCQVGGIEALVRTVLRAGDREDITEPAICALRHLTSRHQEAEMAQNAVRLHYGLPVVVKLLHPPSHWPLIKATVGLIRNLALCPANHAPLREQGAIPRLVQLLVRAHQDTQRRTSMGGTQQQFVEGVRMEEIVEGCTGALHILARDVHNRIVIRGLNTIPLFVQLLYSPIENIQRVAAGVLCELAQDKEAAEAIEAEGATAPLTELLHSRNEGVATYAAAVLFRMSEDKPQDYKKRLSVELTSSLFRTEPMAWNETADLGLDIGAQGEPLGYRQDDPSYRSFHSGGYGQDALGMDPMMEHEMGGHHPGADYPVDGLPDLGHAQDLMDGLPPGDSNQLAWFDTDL
Test: Competition fluorescence polarization assay (Axin site probe)
Format: binding
Conditions: competition fluorescence polarization, Table 2; read-out: in vitro FP EC50
Method: FIG. 1. […] Peptide solutions were prepared in buffer (50 mM Tris pH 8.0, 250 mM NaCl, 2% glycerol, 0.5 mM EDTA, 0.02% w/v sodium azide) using a 3-fold serial dilution from 5 μM. Probe solution (15 nM full-length 13-Catenin, 20 nM FITC labeled peptide (FITC-PEG1-PQ-S5-ILD-S5-HVRRVWR (SEQ ID NO: 1) (hydrocarbon staple formed by two S5 via olefin metathesis)) in buffer) was prepared and incubated for 5 minutes, then 40 μL per well plated in a black polystyrene 384-well plate (Corning). Equal volume of the titrated peptide was added to the plate and incubated protected from light for 15 minutes prior to read. Reads were performed on a Spectramax M5 (Molecular Devices) in duplicate.
FIG. 7. […] BCL9 Competition FP assay: Peptide solutions were prepared in buffer (50 mM Tris pH 8.0, 250 mM NaCl, 2% glycerol, 0.5 mM EDTA, 0.02% w/v sodium azide) using a 3-fold serial dilution from 10 μM. Probe solution (250 nM full-length beta-catenin, 20 nM 5FAM labeled peptide in buffer) was prepared and 40 μL per well plated in a black polystyrene 384-well plate (Corning). Equal volume of the titrated peptide was added to the plate and incubated protected from light for 15 minutes prior to read. Reads were performed on a Spectramax M5 (Molecular Devices) in duplicate. Probe: Ac-[…]nLeu-Leu-2NapA-bala-bala-Lys5FAM-NH2 (SEQ ID NO: 2) (from Biochemistry, 2009, 48 (40), pp 9534-9541). Axin Competition FP assay: Peptide solutions were prepared in buffer (50 mM Tris pH 8.0, 250 mM NaCl, 2% glycerol, 0.5 mM EDTA, 0.02% w/v sodium azide) using a 3-fold serial dilution from 5 μM. Probe solution (15 nM full-length beta-catenin, 20 nM FITC labeled peptide in buffer) was prepared and incubated for 5 minutes, then 40 μL per well plated in a black polystyrene 384-well plate (Corning). Equal volume of the titrated peptide was added to the plate and incubated protected from light for 15 minutes prior to read. Reads were performed on a Spectramax M5 (Molecular Devices) in duplicate. Probe: FITC-StAx-33 from Grossmann et al. PNAS 109 17942-17947.

Structure (SMILES)	EC50 [nM]
CC[C@H](C)[C@@H]1NC(=O)[C@H](Cc2c[nH]cn2)NC(=O)[C@H](C)NC(=O)[C@H](CC(=O)O)NC(=O)[C@H](CC(C)C)NC(=O)[C@H]([C@@H](C)CC)NC(=O)[C@](C)(NC(=O)[C@H](C)NC(C)=O)CCCCCCC=CCOC(=O)N2CC[C@@](C(=O)N[C@@H](CCCNC(=N)N)C(=O)N[C@H](C(=O)N[C@@H](Cc3c[nH]c4ccccc34)C(N)=O)C(C)C)(C2)NC1=O (single isomer, unassigned) [FP0217c Isomer 1, Ac-AR8ILDAHIMBRVW (SEQ ID NO: 280)]	500 to 5000
CC[C@H](C)[C@@H]1NC(=O)[C@H](Cc2c[nH]cn2)NC(=O)[C@H](C)NC(=O)[C@H](CC(=O)O)NC(=O)[C@H](CC(C)C)NC(=O)[C@H]([C@@H](C)CC)NC(=O)[C@](C)(NC(=O)[C@H](C)NC(C)=O)CCCCCCC=CCCC[C@@](C)(C(=O)N[C@@H](CCCNC(=N)N)C(=O)N[C@H](C(=O)N[C@@H](Cc2c[nH]c3ccccc23)C(N)=O)C(C)C)NC1=O (single isomer, unassigned) [FP0217s Isomer 1, Ac-A-R8-I-L-D-A-H-I-S5-R-V-W-NH2]	< 100
CC[C@H](C)[C@@H]1NC(=O)[C@H](Cc2c[nH]cn2)NC(=O)[C@H](C)NC(=O)[C@H](CC(=O)O)NC(=O)[C@H](CC(C)C)NC(=O)[C@H]([C@@H](C)CC)NC(=O)[C@](C)(NC(=O)[C@H](C)NC(C)=O)CCCCCCC=CCCC[C@@](C)(C(=O)N[C@@H](CCCNC(=N)N)C(=O)N[C@H](C(=O)N[C@@H](Cc2c[nH]c3ccccc23)C(N)=O)C(C)C)NC1=O (single isomer, unassigned) [FP0217s Isomer 2, Ac-A-R8-I-L-D-A-H-I-S5-R-V-W-NH2]	< 100
CC[C@H](C)[C@@H]1NC(=O)[C@H](Cc2c[nH]cn2)NC(=O)[C@H](C)NC(=O)[C@H](CC(=O)O)NC(=O)[C@H](CC(C)C)NC(=O)[C@H]([C@@H](C)CC)NC(=O)[C@](C)(NC(=O)[C@H](C)NC(C)=O)CN(C)C(=O)OCC=CCCCCCC[C@@](C)(C(=O)N[C@@H](CCCNC(=N)N)C(=O)N[C@H](C(=O)N[C@@H](Cc2c[nH]c3ccccc23)C(N)=O)C(C)C)NC1=O (single isomer, unassigned) [FP0335c Isomer 1, Ac-A-ME-I-L-D-A-H-I-S8-R-V-W-NH2]	100 to 500
CC[C@H](C)[C@@H]1NC(=O)[C@H](Cc2c[nH]cn2)NC(=O)[C@H](C)NC(=O)[C@H](CC(=O)O)NC(=O)[C@H](CC(C)C)NC(=O)[C@H]([C@@H](C)CC)NC(=O)[C@](C)(NC(=O)[C@H](C)NC(C)=O)CN(C)C(=O)OCC=CCCCCCC[C@@](C)(C(=O)N[C@@H](CCCNC(=N)N)C(=O)N[C@H](C(=O)N[C@@H](Cc2c[nH]c3ccccc23)C(N)=O)C(C)C)NC1=O (single isomer, unassigned) [FP0335c Isomer 2, Ac-A-ME-I-L-D-A-H-I-S8-R-V-W-NH2]	< 100
CC[C@H](C)[C@@H]1NC(=O)[C@H](Cc2c[nH]cn2)NC(=O)[C@H](C)NC(=O)[C@H](CC(=O)O)NC(=O)[C@H](CC(C)C)NC(=O)[C@H]([C@@H](C)CC)NC(=O)[C@](C)(NC(=O)[C@H](C)NC(C)=O)CCCCCCC=CCOC(=O)N2CC[C@@](C(=O)N[C@@H](Cc3cccc4ccccc34)C(=O)N[C@H](C(=O)N[C@@H](Cc3c[nH]c4ccccc34)C(N)=O)C(C)C)(C2)NC1=O (single isomer, unassigned) [FP0365c Isomer 2, Ac-A-R8-I-L-D-A-H-I-MB-1NapA-V-W-NH2]	500 to 5000
CC[C@H](C)[C@@H]1NC(=O)[C@H](Cc2c[nH]cn2)NC(=O)[C@H](C)NC(=O)[C@H](CC(=O)O)NC(=O)[C@H](CC(C)C)NC(=O)[C@H]([C@@H](C)CC)NC(=O)[C@](C)(NC(=O)[C@H](C)NC(C)=O)CCCN(C)C(=O)OCC=CCCC[C@@](C)(C(=O)N[C@@H](CCCNC(=N)N)C(=O)N[C@H](C(=O)N[C@@H](Cc2c[nH]c3ccccc23)C(N)=O)C(C)C)NC1=O (single isomer, unassigned) [FP0506c Isomer 1, Ac-A-MI-I-L-D-A-H-I-S5-R-V-W-NH2]	100 to 500
CC[C@H](C)[C@@H]1NC(=O)[C@H](Cc2c[nH]cn2)NC(=O)[C@H](C)NC(=O)[C@H](CC(=O)O)NC(=O)[C@H](CC(C)C)NC(=O)[C@H]([C@@H](C)CC)NC(=O)[C@](C)(NC(=O)[C@H](C)NC(C)=O)CCCN(C)C(=O)OCC=CCCC[C@@](C)(C(=O)N[C@@H](CCCNC(=N)N)C(=O)N[C@H](C(=O)N[C@@H](Cc2c[nH]c3ccccc23)C(N)=O)C(C)C)NC1=O (single isomer, unassigned) [FP0506c Isomer 2, Ac-A-MI-I-L-D-A-H-I-S5-R-V-W-NH2]	< 100

Second part, the compound after the results:

EC50 [nM]	Structure (SMILES)
100 to 500	CC[C@H](C)[C@@H]1NC(=O)[C@](C)(NC(=O)[C@H](C)NC(=O)[C@@H]2CCCN2C(C)=O)CCCC=CCCCCCC[C@@](C)(C(=O)N[C@@H](CCCNC(=N)N)C(=O)N[C@H](C(=O)N[C@@H](Cc2c[nH]c3ccccc23)C(N)=O)C(C)C)NC(=O)[C@H](C(C)C)NC(=O)[C@H](Cc2c[nH]cn2)NC(=O)[C@H](C)NC(=O)[C@H](CC(=O)O)NC(=O)[C@H](CC(C)C)NC1=O (single isomer, unassigned) [FP0212s Isomer 2, Ac-P-A-R5-I-L-D-A-H-V-S8-R-V-W-NH2]
500 to 5000	CC[C@H](C)[C@@H]1NC(=O)[C@H](Cc2c[nH]cn2)NC(=O)[C@H](C)NC(=O)[C@H](CC(=O)O)NC(=O)[C@H](CC(C)C)NC(=O)[C@H]([C@@H](C)CC)NC(=O)[C@](C)(NC(=O)[C@H](C)NC(C)=O)CCCCCCC=CCOC(=O)N2CC[C@@](C(=O)N[C@@H](Cc3cccc4ccccc34)C(=O)N[C@H](C(=O)N[C@@H](Cc3c[nH]c4ccccc34)C(N)=O)C(C)C)(C2)NC1=O (single isomer, unassigned) [FP0365c Isomer 1, Ac-A-R8-I-L-D-A-H-I-MB-1NapA-V-W-NH2]
100 to 500	CC[C@H](C)[C@@H]1NC(=O)[C@H](Cc2c[nH]cn2)NC(=O)[C@H](C)NC(=O)[C@H](CC(=O)O)NC(=O)[C@H](CC(C)C)NC(=O)[C@H]([C@@H](C)CC)NC(=O)[C@](C)(NC(=O)[C@H](C)NC(C)=O)CCCCCCC=CCOC(=O)N2CC[C@@](C(=O)N[C@@H](Cc3cccc4ccccc34)C(=O)N[C@H](C(=O)N[C@@H](Cc3c[nH]c4ccccc34)C(N)=O)C(C)C)(C2)NC1=O (single isomer, unassigned) [FP0365c, Ac-A-R8-I-L-D-A-H-I-MB-1NapA-V-W-NH2]
< 100	CC[C@H](C)[C@@H]1NC(=O)[C@H](Cc2c[nH]cn2)NC(=O)[C@H](C)NC(=O)[C@H](CC(=O)O)NC(=O)[C@H](CC(C)C)NC(=O)[C@H]([C@@H](C)CC)NC(=O)[C@](C)(NC(=O)[C@H](C)NC(C)=O)CCCCC=CCOC(=O)N(C)CC[C@@](C)(C(=O)N[C@@H](CCCNC(=N)N)C(=O)N[C@H](C(=O)N[C@@H](Cc2c[nH]c3ccccc23)C(N)=O)C(C)C)NC1=O (single isomer, unassigned) [FP0502c Isomer 1, Ac-A-R6-I-L-D-A-H-I-MF-R-V-W-NH2]
100 to 500	CC[C@H](C)[C@@H]1NC(=O)[C@H](Cc2c[nH]cn2)NC(=O)[C@H](C)NC(=O)[C@H](CC(=O)O)NC(=O)[C@H](CC(C)C)NC(=O)[C@H]([C@@H](C)CC)NC(=O)[C@](C)(NC(=O)[C@H](C)NC(C)=O)CCCCC=CCOC(=O)N(C)CC[C@@](C)(C(=O)N[C@@H](CCCNC(=N)N)C(=O)N[C@H](C(=O)N[C@@H](Cc2c[nH]c3ccccc23)C(N)=O)C(C)C)NC1=O (single isomer, unassigned) [FP0502c Isomer 2, Ac-A-R6-I-L-D-A-H-I-MF-R-V-W-NH2]
